Measured values published in patent US20120190703A1, “SALTS OF 13A-(S)DESOXYTYLOPHORININE, PREPARATION METHODS AND PHARMACEUTICAL COMPOSITIONS AND USES THEREOF” (priority 2009, published 2012).
Several values for one entry are separate records, joined by “and”; a condition that tells them apart may be missing. Equal entries are not always repeated. Structures can show the parent of a compound that is named as a salt. Where two headings read alike, the source gives them in different places. Marks after values point to notes of the source that are not given here.

Columns and labels:
H22 tumor-bearing mice [1] = system: H22 tumor-bearing mice
From the text: To determine the pharmacodynamic characters of 13a-(S)-deoxytylophorinine and its salts, the impact of these compounds to the tumor growth in H22 tumor-bearing mice was surveyed.
Male Kunming mice were obtained from the Laboratory Animal Center, Academy of Military Medical Science. Body weight 18˜22 g. 6 animals per group, totally 10 groups, 60 animals.
(+)-13a-(S)-deoxytylophorinine, (+)-13a-(S)-deoxytylophorinine Tartrate, (+)-13a-(S)-deoxytylophorinine Maleate, (+)-13a-(S)-deoxytylophorinine Citrate, Cytoxane (CTX) as positive control.
(+)-13a-(S)-deoxytylophorinine was administered at high dose (5 mg/kg) and low dose (2.5 mg/kg). Three (+)-13a-(S)-deoxytylophorinine salts were administered at high dose and low dose as equal moles with their prototype (Tartrate: 7.05 mg/kg, 3.53 mg/kg; Malate: 6.60 mg/kg, 3.30 mg/kg; Citrate: 7.90 mg/kg, 3.95 mg/kg).
Animals were reared in SPF grade circumstance to be observed for 24 h. The tumor cells liquid which resuscitated in abdominal cavity of KM mice was diluted with aseptic normal saline at 1:3 ratio. The resulting liquid was inoculated subcutaneously at forelimb with 0.2 mL every animal. After the injection over, the animals were divided to […] with 6 animals per group.
Four experimental samples were intragastric administered once daily 24 h after inoculation. The positive control CTX was intraperitoneal injected once daily. The animal body weight was recorded every day.

[2] = Drug distribution in brain tissue after oral administration in mice; assay type: in vivo, ICR mice; details: for Brain contents of (+)-13a-(S)-deoxytylophorinine (ng/ml), Mean ± SD / Brain contents of (+)-13a-(S)-deoxytylophorinine (ng/ml), individual animals 1-3: 6 mg/kg oral
Experimental: (§1) Male ICR mice. Body weight 18˜22 g.
Plasma was isolated by centrifugalization. […] 25% tissue homogenate was prepared with normal saline addition.
The drug concentration-time data in brain tissue after administered orally of (+)-13a-(S)-deoxytylophorinine tartrate, maleate and citrate were represented in Table 8˜10 and FIG. 6˜8. […] (+)-13a-(S)-deoxytylophorinine could be detected in 5 min. The peak concentration was reached after 15 min, and the compound still can be detected after 2 h after administration.

Solubility in water = assay type: physicochemical; details: for solubility: water
[3] = Plasma pharmacokinetics after oral administration in mice
Experimental: To determine the pharmacokinetic characters of 13a-(S)-deoxytylophorinine and its salts, the studies about plasma pharmacokinetics and the character of distribution in brain were pursued.
as §1
(+)-13a-(S)-deoxytylophorinine Tartrate, (+)-13a-(S)-deoxytylophorinine Maleate, (+)-13a-(S)-deoxytylophorinine Citrate. All were dissolved in distilled water as 0.6 mg/ml solution before experiment progressed.
72 mice were divided to 3 groups with 24 animals per group, fasting for 16 h and drinking water freely. […] Plasma was isolated by centrifugalization. After the salts were administered orally, the brain tissues of mice were collected at 5 min, 15 min, 2 h time points. 25% tissue homogenate was prepared with normal saline addition. 200 μL of homogenate and plasma were added isovolumic MeCN to precipitate protein. 5 μL of clear supernatant was analyzed by LC/MS/MS.
(+)-13a-(S)-deoxytylophorinine was dissolved in DMSO and then diluted with MeOH with concentration 10, 50, 100, 500, 1000 and 2500 ng/ml respectively. 10 μl of standard solutions of (+)-13a-(S)-deoxytylophorinine with different concentration above were added to 200 μl of blank plasma sequently to adjust the concentration to 0.5, 2.5, 5, 25, 50, 125 ng/ml respectively. MeCN was added to the solution to precipitate protein, and 5 μl of result clear supernatant was analyzed with LC/MS/MS. Linear regression was ran with the peak area of (+)-13a-(S)-deoxytylophorinine as ordinate and the concentrations as abscissa.

H22 tumor-bearing mice [4] = system: H22 tumor-bearing mice; remark: listed apart in the source
Experimental: To observe the impact of 13a-(S)-deoxytylophorinine Sulfate: on the tumor growth of H22 tumor-bearing mice.
Male Kunming mice were obtained from the Laboratory Animal Center, Academy of Military Medical Science. Body weight 18˜22 g.
(+)-13a-(S)-deoxytylophorinine Sulfate, Cytoxane (CTX) as positive control.
All the samples were administered orally. o.d. 0.2 ml/10 g.
(+)-13a-(S)-deoxytylophorinine Sulfate was administered at five dose groups: 3 mg/kg, 4 mg/kg, 5 mg/kg, 6 mg/kg and 8 mg/kg.
Animals were reared in SPF grade circumstance to be observed for 24 h. The tumor cells liquid which resuscitated in abdominal cavity of KM species mice was diluted with aseptic normal saline at 1:3 ratio. The resulting liquid was inoculated subcutaneously at forelimb with 0.2 mL every animal. After the injection over, the animals were divided to 13 groups. Experimental samples were administered 24 h after inoculation.

[5] = high dose × 7 d, intragastric once daily, equal moles: prototype 5.0, tartrate 7.05, maleate 6.60, citrate 7.90 mg/kg
[6] = low dose × 7 d, intragastric once daily, equal moles: prototype 2.5, tartrate 3.53, maleate 3.30, citrate 3.95 mg/kg
[7] = 6 mg/kg oral, mice, Time (min) 0.5
[8] = 6 mg/kg oral, mice, Time (min) 1
[9] = male, ICR, mouse, plasma, po, 6 mg/kg

## COc1ccc2c3c(c4cc(OC)c(OC)cc4c2c1)CN1CCC[C@H]1C3.O=C(O)CC(O)(CC(=O)O)C(=O)O [Citrate, (+)-13a-(S)-deoxytylophorinine Citrate]
H22 tumor-bearing mice [1]; [5]
  Animal No. (Initial/Final): 6/5
  Body Weight(g) Final: 14.27 ± 2.61 g
  Body Weight(g) Initial: 22.00 ± 1.55 g⁻¹
  Inhibition (%): 80.44** %
  Tumor Weight (g, mean ± SD): 0.22 ± 0.13 g
H22 tumor-bearing mice [1]; [6]
  Animal No. (Initial/Final): 6/6
  Body Weight(g) Final: 21.01 ± 2.04 g
  Body Weight(g) Initial: 21.83 ± 0.75 g⁻¹
  Inhibition (%): 46.87* %
  Tumor Weight (g, mean ± SD): 0.61 ± 0.35 g
[2]; Time (min) 5
  Brain contents of (+)-13a-(S)-deoxytylophorinine (ng/ml), Mean ± SD: 23.6 ± 12.7 ng/mL
  Brain contents of (+)-13a-(S)-deoxytylophorinine (ng/ml), individual animals 1-3: 22.0 ng/mL and 37.1 ng/mL and 11.8 ng/mL
[2]; Time (min) 15
  Brain contents of (+)-13a-(S)-deoxytylophorinine (ng/ml), Mean ± SD: 87.3 ± 50.1 ng/mL
  Brain contents of (+)-13a-(S)-deoxytylophorinine (ng/ml), individual animals 1-3: 84.8 ng/mL and 138.7 ng/mL and 38.5 ng/mL
[2]; Time (min) 120
  Brain contents of (+)-13a-(S)-deoxytylophorinine (ng/ml), Mean ± SD: 48.7 ± 14.1 ng/mL
  Brain contents of (+)-13a-(S)-deoxytylophorinine (ng/ml), individual animals 1-3: 37.0 ng/mL and 44.8 ng/mL and 64.4 ng/mL
[2]; oral, 3 time points
  Drug contents in brain compared with prototype: lower than its prototype
Solubility in water
  Solubility in water (words): soluble in water
  solubility: 33 mg/mL
[3]; 6 mg/kg oral, mice
  Peak concentration in blood: 20.1 ± 12.2 ng/mL
  Time of peak concentration in blood: 15 min
[3]; 6 mg/kg oral, mice, plasma, non-compartment model
  t½z: 0.86 h
[3]; [7]
  Blood concentration of (+)-13a-(S)-deoxytylophorinine (ng/ml), Mean ± SD: 12.6 ± 6.5 ng/mL
  Blood concentration of (+)-13a-(S)-deoxytylophorinine (ng/ml), individual animals 1-3: 20.1 ng/mL and 8.4 ng/mL and 9.3 ng/mL
[3]; [8]
  Blood concentration of (+)-13a-(S)-deoxytylophorinine (ng/ml), Mean ± SD: 8.4 ± 2.9 ng/mL
  Blood concentration of (+)-13a-(S)-deoxytylophorinine (ng/ml), individual animals 1-3: 11.2 ng/mL and 5.4 ng/mL and 8.5 ng/mL
[3]; [9]
  AUC(0-inf): 33.1 ng·h/mL
  AUC(0-t): 32.7 ng·h/mL
  Cmax: 20.1 ng/mL
  MRT inf: 2.29 h
  MRT last: 1.73 h
  Tmax: 0.25 h

## COc1ccc2c3c(c4cc(OC)c(OC)cc4c2c1)CN1CCC[C@H]1C3 [Sulfate, (+)-13a-(S)-deoxytylophorinine Sulfate]
H22 tumor-bearing mice [4]; 3 mg/kg × 7, oral (o.p.)
  Animal No. (Initial/Final): 6/6
  Body Weight(g) Final: 26.83 ± 2.56 g
  Body Weight(g) Initial: 20.67 ± 0.52 g⁻¹
  Inhibition (%): 22.49* %
  Tumor Weight (g, mean ± SD): 0.98 ± 0.21 g
H22 tumor-bearing mice [4]; 4 mg/kg × 7, oral (o.p.)
  Animal No. (Initial/Final): 6/6
  Body Weight(g) Final: 22.83 ± 2.40 g
  Body Weight(g) Initial: 20.00 ± 1.26 g⁻¹
  Inhibition (%): 52.51* %
  Tumor Weight (g, mean ± SD): 0.60 ± 0.32 g
H22 tumor-bearing mice [4]; 5 mg/kg × 7, oral (o.p.)
  Animal No. (Initial/Final): 6/6
  Body Weight(g) Final: 22.17 ± 5.31 g
  Body Weight(g) Initial: 19.83 ± 1.72 g⁻¹
  Inhibition (%): 41.75* %
  Tumor Weight (g, mean ± SD): 0.73 ± 0.39 g
H22 tumor-bearing mice [4]; 6 mg/kg orally
  Deaths of mice (table note): After (+)-13a-(S)-deoxytylophorinine Sulfate (6 mg/kg) was administered orally, one of mice died on sixth day, two of mice died on seventh day. Stop administion.
H22 tumor-bearing mice [4]; 6 mg/kg × 6, oral (o.p.)
  Animal No. (Initial/Final): 6/3
  Body Weight(g) Final: 15.33 ± 3.21 g
  Body Weight(g) Initial: 19.83 ± 1.72 g⁻¹
  Inhibition (%): 68.52** %
  Tumor Weight (g, mean ± SD): 0.40 ± 0.24 g
H22 tumor-bearing mice [4]; 8 mg/kg orally
  Deaths of mice (table note): After (+)-13a-(S)-deoxytylophorinine Sulfate (8 mg/kg) was administered orally, one of mice died on sixth day, two of mice died on seventh day. Stop administion.
H22 tumor-bearing mice [4]; 8 mg/kg × 6, oral (o.p.)
  Animal No. (Initial/Final): 6/0
  Body Weight(g) Initial: 20.67 ± 1.03 g⁻¹
  Inhibition (%): 88.49** %
  Tumor Weight (g, mean ± SD): 0.15 ± 0.04 g
Solubility in water
  solubility: 200 mg/mL

## O=P1(N(CCCl)CCCl)NCCCO1 (stereo not drawn) [CTX, Cytoxan, reference compound]
H22 tumor-bearing mice [1]; 100 mg/kg × 1, i.p.
  Animal No. (Initial/Final): 6/6
  Body Weight(g) Final: 23.77 ± 1.38 g
  Body Weight(g) Initial: 21.33 ± 1.63 g⁻¹
  Inhibition (%): 48.47* %
  Tumor Weight (g, mean ± SD): 0.59 ± 0.26 g
H22 tumor-bearing mice [4]; 100 mg/kg × 1, i.p.
  Animal No. (Initial/Final): 6/6
  Body Weight(g) Final: 25.00 ± 2.37 g
  Body Weight(g) Initial: 20.67 ± 2.07 g⁻¹
  Inhibition (%): 94.76** %
  Tumor Weight (g, mean ± SD): 0.07 ± 0.04 g
